Test results taken from PubChem BioAssay (NCI).
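Tested at 5 concentrations; 48 h exposure; 96-well plates; endpoints linearly interpolated, else capped at highest concentration. TGI denotes the concentration required for complete inhibition of growth.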

Experiments:
Experiment in all cases: NCI-60 cell line screen, 48 h
[1] = system: T-47D breast
[2] = system: NCI-H226 lung
[3] = system: RPMI-8226 leukemia
[4] = system: 786-0 renal
[5] = system: HCT-15 colon
[6] = system: U251 CNS
[7] = system: HT29 colon
[8] = system: SK-MEL-28 melanoma
[9] = system: COLO 205 colon
[10] = system: ACHN renal
[11] = system: NCI-H23 lung
[12] = system: MOLT-4 leukemia
[13] = system: EKVX NSCLC
[14] = system: CAKI-1 renal
[15] = system: MCF7 breast
[16] = system: MDA-N
[17] = system: SNB-75 CNS
[18] = system: SF-539 CNS
[19] = system: MDA-MB-231 breast
[20] = system: KM12 colon
[21] = system: HCT-116 colon
[22] = system: SF-268 CNS
[23] = system: A498 renal
[24] = system: UACC-257 melanoma
[25] = system: NCI-H460 lung
[26] = system: MDA-MB-435
[27] = system: LOX IMVI melanoma
[28] = system: NCI-H522 lung
[29] = system: DU-145 prostate
[30] = system: MALME-3M melanoma
[31] = system: A549 NSCLC
[32] = system: HL-60(TB) leukemia
[33] = system: HOP-92 NSCLC
[34] = system: SK-OV-3 ovarian
[35] = system: SK-MEL-2 melanoma
[36] = system: NCI/ADR-RES ovarian
[37] = system: M14 melanoma
[38] = system: K-562 leukemia
[39] = system: OVCAR-8 ovarian
[40] = system: PC-3 prostate
[41] = system: OVCAR-4 ovarian
[42] = system: HCC-2998 colon
[43] = system: HS 578T breast
[44] = system: CCRF-CEM leukemia
[45] = system: SNB-19 CNS
[46] = system: SN12C renal
[47] = system: SK-MEL-5 melanoma
[48] = system: SW-620 colon
[49] = system: UACC-62 melanoma
[50] = system: SR leukemia
[51] = system: HOP-62 NSCLC
[52] = system: TK-10 renal
[53] = system: BT-549 breast
[54] = system: IGROV1 ovarian
[55] = system: RXF 393 renal
[56] = system: OVCAR-3 ovarian
[57] = system: SF-295 CNS
[58] = system: UO-31 renal
[59] = system: OVCAR-5 ovarian

C=C[C@@]1(C)CC2(C=C(CO)C(O)O2)Oc2c1c(=O)oc1cccc(C)c21 (stereo partly drawn) showed a TGI [1] of 44.6 µM, a TGI [2] of 35.5 µM and a TGI [3] of 3.82 µM. The TGI [4] was 3.8 µM, the TGI [5] was 7.17 µM and the TGI [6] was 25.6 µM. It also gave a TGI [7] of 21.9 µM, a TGI [8] of 25.5 µM and a TGI [9] of 26.9 µM. For the same compound, the TGI [10] was 21.2 µM, the TGI [11] was 21.3 µM and the TGI [12] was 5.78 µM. It also gave a TGI [13] of 35.2 µM, a TGI [14] of 15.6 µM and a TGI [15] of 25.1 µM. It also gave a TGI [16] of 15.2 µM, a TGI [17] of 28.8 µM and a TGI [18] of 12 µM. The TGI [19] was 23.9 µM, the TGI [20] was 33.9 µM and the TGI [21] was 3.65 µM. The TGI [22] was 12.2 µM, the TGI [23] was 51.8 µM and the TGI [24] was 35 µM. For the same compound, the TGI [25] was 45.2 µM, the TGI [26] was 10.3 µM and the TGI [27] was 13.7 µM. The TGI [28] was 4.82 µM, the TGI [29] was 29.1 µM and the TGI [30] was 26.7 µM. The TGI [31] was 68.7 µM, the TGI [32] was 5.12 µM and the TGI [33] was 40.2 µM. The TGI [34] was 47.3 µM, the TGI [35] was 21.7 µM and the TGI [36] was 10.2 µM. For the same compound, the TGI [37] was 12.1 µM, the TGI [38] was 7.46 µM and the TGI [39] was 9.72 µM. It also gave a TGI [40] of 32.7 µM, a TGI [41] of 12.8 µM and a TGI [42] of 40.1 µM. The TGI [43] was 42.9 µM, the TGI [44] was 7.98 µM and the TGI [45] was 33.2 µM. The TGI [46] was 15.9 µM, the TGI [47] was 25.3 µM and the TGI [48] was 3.74 µM. The TGI [49] was 23.1 µM, the TGI [50] was 7.75 µM and the TGI [51] was 33.8 µM. For the same compound, the TGI [52] was 43.5 µM, the TGI [53] was 14.2 µM and the TGI [54] was 18.4 µM. It also gave a TGI [55] of 8.86 µM, a TGI [56] of 9.66 µM and a TGI [57] greater than 75.1 µM. For the same compound, the TGI [58] was 19 µM and the TGI [59] was 36 µM.
For C[C@]12CC[C@H](O)C[C@@H]1CC[C@@H]1[C@@H]2CC[C@]2(C)[C@@H](c3cc(C(F)(F)F)n[nH]3)CC[C@@H]12, the TGI [1] was 23.6 µM, the TGI [2] was 36.7 µM and the TGI [3] was 22.7 µM. The TGI [4] was 17 µM, the TGI [5] was 24.3 µM and the TGI [6] was 24.1 µM. For the same compound, the TGI [7] was 18.4 µM, the TGI [8] was 26.9 µM and the TGI [9] was 16.2 µM. It also gave a TGI [10] of 20 µM, a TGI [11] of 24.7 µM and a TGI [12] of 19.7 µM. It also gave a TGI [13] of 28.2 µM, a TGI [14] of 26.9 µM and a TGI [15] of 21.1 µM. For the same compound, the TGI [16] was 25.4 µM, the TGI [17] was 24.5 µM and the TGI [18] was 22.5 µM. It also gave a TGI [19] of 18.9 µM, a TGI [20] of 25.6 µM and a TGI [21] of 14 µM. It also gave a TGI [22] greater than 53.6 µM, a TGI [23] of 21.1 µM and a TGI [24] of 16.8 µM. The TGI [25] was 15.3 µM, the TGI [26] was 22.9 µM and the TGI [27] was 21.7 µM. For the same compound, the TGI [28] was greater than 43.8 µM, the TGI [29] was 22.9 µM and the TGI [30] was greater than 53.3 µM. The TGI [31] was 23.1 µM, the TGI [32] was 2.89 µM and the TGI [33] was 9.07 µM. It also gave a TGI [34] of 28.4 µM, a TGI [35] of 33.1 µM and a TGI [36] of 23.3 µM. It also gave a TGI [37] of 23.9 µM, a TGI [38] of 15.3 µM and a TGI [39] of 21 µM. The TGI [40] was 20.7 µM, the TGI [41] was 20.2 µM and the TGI [42] was 34.4 µM. The TGI [43] was greater than 58.9 µM, the TGI [44] was 5.43 µM and the TGI [45] was 28.3 µM. For the same compound, the TGI [46] was 21.7 µM, the TGI [47] was 19.6 µM and the TGI [48] was 37.3 µM. It also gave a TGI [49] of 27.4 µM, a TGI [50] of 15.3 µM and a TGI [51] of 23 µM. For the same compound, the TGI [52] was 16 µM, the TGI [53] was 23 µM and the TGI [54] was 19.8 µM. For the same compound, the TGI [55] was 16.5 µM, the TGI [56] was 24.8 µM and the TGI [57] was 16.9 µM. For the same compound, the TGI [58] was 3.1 µM and the TGI [59] was 23.5 µM.
